Results on one molecule are retold here after ChEMBL document CHEMBL2074023, “Reversal of acquired resistance to doxorubicin in K562 human leukemia cells by astemizole” (Biol Pharm Bull, 2000).

Data set [1] concerns the target T1, ATP-dependent translocase ABCB1 (Homo sapiens, UniProt P08183). Briefly: TP_TRANSPORTER: inhibition of Azidopine photoaffinity labelling (Azidopine: 0.1 uM, Astemizole: 10 uM) in membranes from K562/DOX cells. In kind it is functional, cell membranes, Membrane. As to conditions: k562/adr.
In data set [2] the target is T1, ATP-dependent translocase ABCB1. Nature of the data set: TP_TRANSPORTER: increase in Doxorubicin intracellular accumulation (Doxorubicin: 4 uM, Astemizole: 3 uM) in K562/DOX cells. In kind it is functional, cell-based. As to conditions: k562/adr.

T1 sequence (P08183 whole entry): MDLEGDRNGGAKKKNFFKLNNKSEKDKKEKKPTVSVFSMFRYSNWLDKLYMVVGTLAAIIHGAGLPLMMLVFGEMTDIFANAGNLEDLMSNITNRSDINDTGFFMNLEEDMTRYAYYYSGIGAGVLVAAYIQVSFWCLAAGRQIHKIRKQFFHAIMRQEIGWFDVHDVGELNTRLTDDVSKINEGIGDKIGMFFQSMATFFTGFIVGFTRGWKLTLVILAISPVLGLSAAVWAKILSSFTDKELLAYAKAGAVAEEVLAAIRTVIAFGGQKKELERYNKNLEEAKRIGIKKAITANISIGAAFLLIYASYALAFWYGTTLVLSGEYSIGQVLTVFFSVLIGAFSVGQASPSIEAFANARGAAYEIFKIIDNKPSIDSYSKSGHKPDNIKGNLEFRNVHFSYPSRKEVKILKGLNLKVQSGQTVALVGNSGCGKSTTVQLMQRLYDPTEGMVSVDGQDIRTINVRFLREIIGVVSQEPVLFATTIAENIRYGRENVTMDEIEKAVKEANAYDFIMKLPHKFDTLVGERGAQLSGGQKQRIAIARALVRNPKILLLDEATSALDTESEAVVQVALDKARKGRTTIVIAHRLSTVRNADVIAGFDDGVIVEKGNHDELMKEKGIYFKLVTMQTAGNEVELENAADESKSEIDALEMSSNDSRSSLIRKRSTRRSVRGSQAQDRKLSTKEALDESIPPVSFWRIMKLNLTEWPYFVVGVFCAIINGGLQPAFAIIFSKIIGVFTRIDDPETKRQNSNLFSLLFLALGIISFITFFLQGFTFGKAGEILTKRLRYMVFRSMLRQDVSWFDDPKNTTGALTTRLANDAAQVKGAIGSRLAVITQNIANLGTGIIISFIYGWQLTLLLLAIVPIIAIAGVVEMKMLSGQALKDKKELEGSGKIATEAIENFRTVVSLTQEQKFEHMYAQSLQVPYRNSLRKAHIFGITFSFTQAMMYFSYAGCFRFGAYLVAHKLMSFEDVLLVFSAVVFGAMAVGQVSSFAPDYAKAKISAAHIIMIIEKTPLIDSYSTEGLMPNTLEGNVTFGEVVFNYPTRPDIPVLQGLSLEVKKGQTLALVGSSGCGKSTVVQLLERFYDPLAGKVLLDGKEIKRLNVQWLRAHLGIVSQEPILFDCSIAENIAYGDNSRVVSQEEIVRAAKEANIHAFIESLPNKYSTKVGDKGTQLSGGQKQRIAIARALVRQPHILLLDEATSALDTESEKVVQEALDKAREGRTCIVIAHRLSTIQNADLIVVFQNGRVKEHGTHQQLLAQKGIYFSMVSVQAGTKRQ

In the case of `COc1ccc(CCN2CCC(Nc3nc4ccccc4n3Cc3ccc(F)cc3)CC2)cc1` [ASTEMIZOLE], the Activity result in data set [1] and in data set [2] was “inhibitor [+]” each time.
